Laboratory results as given in patent US8003695B2 (Chroma Therapeutics Ltd., priority 2006, dated 2011).

Tests used:
[1] = system: human whole blood; experiment: LPS-Stimulation of Human Whole Blood, TNF-α release; format: cell-based; conditions: LPS 100 ng/ml, 6 hrs, read-out: Inhibitor activity versus human whole blood TNFα release
Procedure: LPS-Stimulation of Human Whole Blood
Whole blood was taken by venous puncture using heparinised vacutainers (Becton Dickinson) and diluted in an equal volume of RPMI1640 tissue culture media (Sigma). 100 μl was plated in V-bottomed 96 well tissue culture treated plates. 2 hrs after the addition of the inhibitor in 100 μl of RPMI1640 media, the blood was stimulated with LPS (E. coli strain 005:B5, Sigma) at a final concentration of 100 ng/ml and incubated at 37° C. in 5% CO2 for 6 hrs. TNF-α levels were measured from cell-free supernatants by sandwich ELISA (R&D Systems #QTA00B)

[2] = molecular target: T1, IKBKB (IKKβ) (Homo sapiens, UniProt O14920); experiment: IKKβ Enzyme Assay (Z'-LYTE, Invitrogen); format: biochemical; conditions: ATP at or close to Km; read-out: Inhibitor activity versus IKKβ
T1 construct: purchased Invitrogen (Paisley, UK)
T1 sequence (O14920 1-756): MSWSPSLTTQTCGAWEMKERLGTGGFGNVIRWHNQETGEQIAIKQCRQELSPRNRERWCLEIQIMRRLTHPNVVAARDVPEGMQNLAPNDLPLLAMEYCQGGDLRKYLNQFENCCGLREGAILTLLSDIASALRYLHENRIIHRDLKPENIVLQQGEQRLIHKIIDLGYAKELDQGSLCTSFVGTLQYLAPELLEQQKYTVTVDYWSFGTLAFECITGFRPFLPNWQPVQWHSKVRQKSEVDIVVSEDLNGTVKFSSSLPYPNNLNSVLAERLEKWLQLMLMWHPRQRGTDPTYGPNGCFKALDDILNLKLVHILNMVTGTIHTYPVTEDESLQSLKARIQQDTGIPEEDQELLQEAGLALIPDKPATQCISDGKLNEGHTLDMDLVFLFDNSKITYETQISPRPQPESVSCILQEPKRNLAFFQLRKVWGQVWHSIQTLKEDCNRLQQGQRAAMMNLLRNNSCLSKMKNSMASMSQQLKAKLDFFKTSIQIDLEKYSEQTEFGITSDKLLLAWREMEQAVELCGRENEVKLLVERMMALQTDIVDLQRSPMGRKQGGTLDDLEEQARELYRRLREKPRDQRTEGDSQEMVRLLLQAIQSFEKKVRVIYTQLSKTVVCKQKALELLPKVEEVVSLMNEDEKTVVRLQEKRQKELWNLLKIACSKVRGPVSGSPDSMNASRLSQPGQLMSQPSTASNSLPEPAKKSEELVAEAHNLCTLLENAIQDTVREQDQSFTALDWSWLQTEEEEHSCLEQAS
Procedure: The ability of compounds to inhibit IKKβ kinase activity was measured in an assay performed by Invitrogen (Paisley, UK). The Z′-LYTE™ biochemical assay employs a fluorescence-based, coupled-enzyme format and is based on the differential sensitivity of phosphorylated and non-phosphorylated peptides to proteolytic cleavage. The peptide substrate is labelled with two fluorophores—one at each end—that make up a FRET pair. In the primary reaction, the kinase transfers the gamma-phosphate of ATP to a single serine or threonine residue in a synthetic FRET-peptide. In the secondary reaction, a site-specific protease recognizes and cleaves non-phosphorylated FRET-peptides. Phosphorylation of FRET-peptides suppresses cleavage by the Development Reagent. Cleavage disrupts FRET between the donor (i.e., coumarin) and acceptor (i.e. fluorescein) fluorophores on the FRET-peptide, whereas uncleaved, phosphorylated FRET-peptides maintain FRET. A […] method, which calculates the ratio (the Emission Ratio) of donor emission to acceptor emission after excitation of the donor fluorophore at 400 nm, is used to quantitate reaction progress.
The final 10 μL Kinase Reaction consists of 0.9-8.0 ng IKBKB (IKKβ), 2 μM Ser/Thr 05 Peptide and ATP in 50 mM HEPES pH 7.5, 0.01% BRIJ-35, 10 mM MgCl2, 1 mM EGTA. The assay is performed at an ATP concentration at, or close to the Km. After the 60 minute Kinase Reaction incubation at room temperature, 5 μL of a 1:128 dilution of Development Reagent is added. The assay plate is incubated for a further 60 minutes at room temperature and read on a fluorescence plate reader.
Duplicate data points are generated from a ⅓ log dilution series of a stock solution of test compound in DMSO. Nine dilutions steps are made from a top concentration of 10 μM, and a ‘no compound’ blank is included. Data is collected and analysed using XLfit software from IDBS. The dose response curve is curve fitted to model number 205 (sigmoidal dose-response model). From the curve generated, the concentration giving 50% inhibition is determined and reported.

[3] = system: THP-1 cells; experiment: LPS-Stimulation of THP-1 Cells, TNF-α release; format: cell-based; conditions: Homo sapiens, LPS 1 μg/ml, 6 hrs, read-out: Inhibitor activity versus THP-1 TNFα release
Procedure: LPS-Stimulation of THP-1 Cells
THP-1 cells were plated in 100 μl at a density of 4×10^4 cells/well in V-bottomed 96 well tissue culture treated plates and incubated at 37° C. in 5% CO2 for 16 hrs. 2 hrs after the addition of the inhibitor in 100 μl of tissue culture media, the cells were stimulated with LPS (E. coli strain 005:85, Sigma) at a final concentration of 1 μg/ml and incubated at 37° C. in 5% CO2 for 6 hrs. TNF-α levels were measured from cell-free supernatants by sandwich ELISA (R&D Systems #QTA00B)

| SMILES | IC50 [1] [µM] | IC50 [2] [µM] | IC50 [3] [µM] |
| --- | --- | --- | --- |
| C[C@@H](OC(C)(C)C)[C@H](NC/C=C/c1ccc(-c2cc(C(N)=O)c(NC(N)=O)s2)cc1)C(=O)OC1CCCC1 [Example 47, Cyclopentyl O-tert-butyl-N-[(2E)-3-{4-[4-carbamoyl-5-(carbamoylamino)thiophen-2-yl]phenyl}prop-2-en-1-yl]-L-threoninate] | > 5 |  |  |
| CC(C)C[C@H](NCCCCCOc1ccc(-c2cc(C(N)=O)c(NC(N)=O)s2)cc1)C(=O)OC1CCCC1 [Example 27, Cyclopentyl N-(5-{4-[4-carbamoyl-5-(carbamoylamino)-2-thienyl]phenoxy}pentyl)-L-leucinate] |  | < 1 | 1 to 5 |
| NC(=O)Nc1sc(-c2ccc(CN[C@H](C(=O)OC3CCCC3)c3ccc4ccccc4c3)cc2)cc1C(N)=O [Example 5, Cyclopentyl (2S)-({4-[4-carbamoyl-5-(carbamoylamino)-2-thienyl]benzyl}amino)(2-naphthyl)acetate] |  | > 5 | > 5 |
| CC(C)C[C@H](NC/C=C/c1ccc(-c2cc(C(N)=O)c(NC(N)=O)s2)cc1C(F)(F)F)C(=O)OC1CCCC1 [Example 36, Cyclopentyl N-[(2E)-3-{4-[4-carbamoyl-5-(carbamoylamino)thiophen-2-yl]-2-(trifluoromethyl)phenyl}prop-2-en-1-yl]-L-leucinate] |  | 1 to 5 | > 5 |
| CC(C)C[C@H](NC/C=C/c1cc(F)c(-c2cc(C(N)=O)c(NC(N)=O)s2)cc1F)C(=O)OC1CCCC1 [Example 37, Cyclopentyl N-[(2E)-3-{4-[4-carbamoyl-5-(carbamoylamino)thiophen-2-yl]-2,5-difluorophenyl}prop-2-en-1-yl]-L-leucinate] |  | 1 to 5 | 1 to 5 |
| NC(=O)Nc1sc(-c2ccc(CN[C@@H](Cc3ccccc3)C(=O)OC3CCCC3)cc2)cc1C(N)=O [Example 3, Cyclopentyl N-{-4-[4-carbamoyl-5-(carbamoylamino)-2-thienyl]benzyl}-L-phenylalaninate] |  | > 5 | > 5 |

Results, then the molecule that gave them:

| IC50 [1] [µM] | IC50 [2] [µM] | IC50 [3] [µM] | SMILES |
| --- | --- | --- | --- |
| 1 to 5 |  |  | CC(C)[C@H](NCc1cccc(-c2cc(C(N)=O)c(NC(N)=O)s2)c1)C(=O)OC1CCCC1 [Example 15, Cyclopentyl N-{3-[4-carbamoyl-5-(carbamoylamino)thiophen-2-yl]benzyl}-L-valinate] |
|  | 1 to 5 | 1 to 5 | CC(C)C[C@H](NCCCOc1ccc(-c2cc(C(N)=O)c(NC(N)=O)s2)cc1)C(=O)OC1CCCC1 [Example 25, Cyclopentyl N-(3-{4-[4-carbamoyl-5-(carbamoylamino)-2-thienyl]phenoxy}propyl)-L-leucinate] |
|  | < 1 | 1 to 5 | Cc1cc(-c2cc(C(N)=O)c(NC(N)=O)s2)ccc1CN[C@@H](CC(C)C)C(=O)OC1CCCC1 [Example 7, Cyclopentyl N-{-4-[4-carbamoyl-5-(carbamoylamino)-2-thienyl]-2-methylbenzyl}-L-leucinate] |
|  | 1 to 5 | 1 to 5 | CC(C)C[C@H](NCCCOc1ccc(-c2cc(C(N)=O)c(NC(N)=O)s2)c(Cl)c1)C(=O)OC1CCCC1 [Example 26, Cyclopentyl N-(3-{4-[4-carbamoyl-5-(carbamoylamino)-2-thienyl]-3-chlorophenoxy}propyl)-L-leucinate] |
|  | > 5 | 1 to 5 | CC(C)C[C@H](NCCCCCOc1ccc(-c2cc(C(N)=O)c(NC(N)=O)s2)c(Cl)c1)C(=O)OC1CCCC1 [Example 28, Cyclopentyl N-(5-{4-[4-carbamoyl-5-(carbamoylamino)-2-thienyl]-3-chlorophenoxy}pentyl)-L-leucinate] |
|  | 1 to 5 | > 5 | CC(C)C[C@H](NCCc1ccc(-c2cc(C(N)=O)c(NC(N)=O)s2)c(Cl)c1)C(=O)OC1CCCC1 [Example 17, Cyclopentyl N-(2-{4-[4-carbamoyl-5-(carbamoylamino)-2-thienyl]-3-chlorophenyl}ethyl)-L-leucinate] |
